# In publication PMC10247784, “Physiological activation of human and mouse bitter taste receptors by bile acids” (Communications Biology, 2023):
# Values joined by “and” are separate entries in the source; they are usually repeats but may differ in a detail not shown here. Equal entries are not always repeated.
# Legend:
# Type in all cases: cell-based
# human TAS2R39 = biological target: T1, human TAS2R39 (Homo sapiens, UniProt P59534); assay: Calcium imaging assay (FLIPR), HEK293T-Gα16gust44 cells transfected with human TAS2R39
# T1 construct: expressed in transfected cells; host or cells: HEK293T-Gα16gust44
# T1 sequence (P59534 1-338): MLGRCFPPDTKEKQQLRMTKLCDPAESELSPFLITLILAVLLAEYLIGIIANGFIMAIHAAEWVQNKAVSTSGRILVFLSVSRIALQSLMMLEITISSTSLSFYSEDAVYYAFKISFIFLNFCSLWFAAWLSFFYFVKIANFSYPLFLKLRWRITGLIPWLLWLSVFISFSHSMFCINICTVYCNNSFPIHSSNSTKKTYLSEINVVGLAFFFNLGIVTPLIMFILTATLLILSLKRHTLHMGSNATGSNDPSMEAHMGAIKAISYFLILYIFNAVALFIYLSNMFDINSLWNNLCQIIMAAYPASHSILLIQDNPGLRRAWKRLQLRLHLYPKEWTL
# Description: (§1) This set of bile acids was chosen because of their commercial availability in high purities, their diversity within the class of bile acids and their previous detection and quantitation in human blood. Stock solutions were prepared in DMSO.
# (§2) As basal growth medium for the HEK293T-Gα16gust44 cell line[17],[59] served Dulbecco’s modified eagle medium (DMEM) (Thermo Fisher Scientific, Darmstadt, Germany) supplemented with 10 % fetal bovine serum (Sigma-Aldrich, Steinheim, Germany), 2 mM L-glutamine (Sigma-Aldrich, Steinheim, Germany), 100 units/ml penicillin (Sigma Aldrich, Steinheim, Germany) and 100 µg/ml streptomycin (Sigma Aldrich, Steinheim, Germany). Growth conditions were 37 °C, 5 % CO2 and saturated air-humidity[60].
# (§3) HEK293T-Gα16gust44 cells were seeded on poly-D-lysine (10 µg/ml) coated 96-well plates to reach a confluence of 40-60 % the next day. For transient transfection 150 ng of plasmid DNA containing the receptor of interest and 0.3 µl lipofectamine 2000 (Thermo Fisher Scientific, Darmstadt, Germany) per well were used and transfection took place according to the manual of lipofectamine 2000. […] The empty vector DNA (mock) was transfected as negative control[14],[41].
# (§4) Cells were loaded using the calcium-sensitive fluorescent dye Fluo-4-AM (Abcam, Cambridge, Great Britain) in the presence of 2.5 mM probenecid (Sigma-Aldrich, Steinheim, Germany) the day after transfection[13],[41]. 1 h after loading, cells were washed with C1 buffer using a BioTek Cell Washer, incubated in the dark for half an hour and washed again. For automated agonist application and measurement of fluorescence changes, a FLIPR^TETRA device (Molecular Devices, San José, United States) was used. Viability of cells was tested by application of 100 nM Somatostatin 14 (Bachem, Bubendorf, Switzerland)[42].
# (§5) Measured data were negative control corrected by subtracting the signal of the mock-transfected cells and exported to Microsoft Excel using the FLIPR software ScreenWorks 4.2. In Microsoft Excel software, standardization of maximum fluorescence intensities to the basal fluorescence and normalization to the buffer-only control was done to calculate the relative fluorescence changes (ΔF/F).
# (§6) Initial screening experiments performed in duplicate wells were confirmed by at least one replication and representative traces were selected for display. All dose-response relationships were determined by three independent experiments (biological replicates) performed in duplicates (technical replicates). Threshold concentrations, defined as lowest substance concentrations leading to statistically significant elevated fluorescence changes in receptor-transfected cells compared with empty vector-transfected cells, were determined using SigmaPlot with Student’s t-test to evaluate statistical significance (p < 0.01).
# human TAS2R46 = biological target: T2, human TAS2R46 (Homo sapiens, UniProt P59540); assay: Calcium imaging assay (FLIPR), HEK293T-Gα16gust44 cells transfected with human TAS2R46
# T2 construct: expressed in transfected cells; host or cells: HEK293T-Gα16gust44
# T2 sequence (P59540 1-309): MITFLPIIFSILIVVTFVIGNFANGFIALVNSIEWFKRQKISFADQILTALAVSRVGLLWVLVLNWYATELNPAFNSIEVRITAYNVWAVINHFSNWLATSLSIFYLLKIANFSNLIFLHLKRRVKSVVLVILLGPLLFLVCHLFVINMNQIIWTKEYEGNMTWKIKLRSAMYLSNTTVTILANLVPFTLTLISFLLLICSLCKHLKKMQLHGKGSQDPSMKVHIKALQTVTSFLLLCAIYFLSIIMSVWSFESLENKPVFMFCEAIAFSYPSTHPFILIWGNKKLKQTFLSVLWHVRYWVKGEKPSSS
# Description: as §1, §2, §3, §4, §5, §6
# [1] = tested on: HEK293T-Gα16gust44 cells transfected with empty vector (mock); assay: Calcium imaging assay (FLIPR), empty vector control (mock)
# In short: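 Fluo-4 calcium responses; ΔF/F corrected for mock transfection and buffer control; triplicate independent dose-response runs; p < 0.01 threshold.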
# [2] = lowest concentration with significantly increased fluorescence vs empty vector (p < 0.01)
structure (smiles),measurement,setting,value
"C[C@H](CCC(=O)NCC(=O)O)[C@H]1CC[C@H]2[C@@H]3[C@H](O)C[C@@H]4C[C@H](O)CC[C@]4(C)[C@H]3C[C@H](O)[C@]12C [Glycocholic Acid, glycocholic acid]",Δ F/F,"human TAS2R39; Conc. 0,01 mM, TAS2R39",0.001299
same,Δ F/F,"human TAS2R39; Conc. 0,1 mM, TAS2R39",0.005941
same,Δ F/F,"human TAS2R39; Conc. 0,03 mM, TAS2R39",0.007895
same,Δ F/F,"human TAS2R39; Conc. 0,3 mM, TAS2R39",0.02136
same,Δ F/F,"human TAS2R39; Conc. 0,001 mM, TAS2R39",0.004486
same,Δ F/F,"human TAS2R39; Conc. 1 mM, TAS2R39",0.1303
same,Δ F/F,"human TAS2R39; Conc. 0,003 mM, TAS2R39",0.004867
same,Efficacy = maximal amplitude (ΔF/F),"human TAS2R39; TAS2R39, bile acids, mean",0.1303
same,"Efficacy (maximal amplitude ΔF/F), individual data points","human TAS2R39; TAS2R39, bile acids, single replicates, listed as GCA",0.1116 and 0.125 and 0.1542
same,Activation threshold concentration TAS2R39,human TAS2R39; [2],300 µM
same,Efficacy = maximal amplitude (ΔF/F),"human TAS2R46; TAS2R46, bile acids, mean",0.0591
same,"Efficacy (maximal amplitude ΔF/F), individual data points","human TAS2R46; TAS2R46, bile acids, single replicates, listed as GCA",0.05097 and 0.06295 and 0.06339
same,Δ F/F,"human TAS2R46; TAS2R46, conc. 0,01 mM",0.003139
same,Δ F/F,"human TAS2R46; TAS2R46, conc. 0,1 mM",0.004292
same,Δ F/F,"human TAS2R46; TAS2R46, conc. 0,03 mM",0.007529
same,Δ F/F,"human TAS2R46; TAS2R46, conc. 0,3 mM",0.01216
same,Δ F/F,"human TAS2R46; TAS2R46, conc. 0,001 mM",0.002929
same,Δ F/F,"human TAS2R46; TAS2R46, conc. 1 mM",0.0591
same,Δ F/F,"human TAS2R46; TAS2R46, conc. 0,003 mM",0.003879
same,Activation threshold concentration TAS2R46,human TAS2R46; [2],1000 µM
same,Δ F/F,"[1]; Conc. 0,01 mM, Mock (sheet TAS2R39)",-0.01548
same,Δ F/F,"[1]; Conc. 0,1 mM, Mock (sheet TAS2R39)",-0.02609
same,Δ F/F,"[1]; Conc. 0,03 mM, Mock (sheet TAS2R39)",-0.02235
same,Δ F/F,"[1]; Conc. 0,3 mM, Mock (sheet TAS2R39)",-0.04919
same,Δ F/F,"[1]; Conc. 0,001 mM, Mock (sheet TAS2R39)",-0.01811
same,Δ F/F,"[1]; Conc. 1 mM, Mock (sheet TAS2R39)",-0.07251
same,Δ F/F,"[1]; Conc. 0,003 mM, Mock (sheet TAS2R39)",-0.02014
same,Δ F/F,"[1]; Mock (sheet Tas2r123), conc. 0,01 mM",-0.001257
same,Δ F/F,"[1]; Mock (sheet Tas2r123), conc. 0,1 mM",-0.001605
same,Δ F/F,"[1]; Mock (sheet Tas2r123), conc. 0,03 mM",-0.001376
same,Δ F/F,"[1]; Mock (sheet Tas2r123), conc. 0,3 mM",0.0005119
same,Δ F/F,"[1]; Mock (sheet Tas2r123), conc. 0,001 mM",-0.001339
same,Δ F/F,"[1]; Mock (sheet Tas2r123), conc. 0,003 mM",-0.001948
same,Δ F/F,"[1]; Mock (sheet Tas2r126), conc. 0,01 mM",-0.0096
same,Δ F/F,"[1]; Mock (sheet Tas2r126), conc. 0,1 mM",-0.02403
same,Δ F/F,"[1]; Mock (sheet Tas2r126), conc. 0,03 mM",-0.01217
same,Δ F/F,"[1]; Mock (sheet Tas2r126), conc. 0,3 mM",-0.03338
same,Δ F/F,"[1]; Mock (sheet Tas2r126), conc. 0,001 mM",-0.01229
same,Δ F/F,"[1]; Mock (sheet Tas2r126), conc. 1 mM",-0.06654
same,Δ F/F,"[1]; Mock (sheet Tas2r126), conc. 0,003 mM",-0.01228
same,Δ F/F,"[1]; Mock (sheet Tas2r144), conc. 0,01 mM",0.0008421
same,Δ F/F,"[1]; Mock (sheet Tas2r144), conc. 0,1 mM",0.001148
same,Δ F/F,"[1]; Mock (sheet Tas2r144), conc. 0,03 mM",-3.983e-5
same,Δ F/F,"[1]; Mock (sheet Tas2r144), conc. 0,3 mM",0.0006824
same,Δ F/F,"[1]; Mock (sheet Tas2r144), conc. 0,003 mM",0.002307
same,Δ F/F,"[1]; Mock, sheet TAS2R4, conc. 0,01 mM",-0.0004971
same,Δ F/F,"[1]; Mock, sheet TAS2R4, conc. 0,1 mM",-0.0007383
same,Δ F/F,"[1]; Mock, sheet TAS2R4, conc. 0,03 mM",-0.0008538
same,Δ F/F,"[1]; Mock, sheet TAS2R4, conc. 0,3 mM",3.213e-5
same,Δ F/F,"[1]; Mock, sheet TAS2R4, conc. 0,001 mM",-0.0002133
same,Δ F/F,"[1]; Mock, sheet TAS2R4, conc. 0,003 mM",-6.081e-5
same,Δ F/F,"[1]; Mock, sheet TAS2R14, conc. 0,01 mM",-0.01698
same,Δ F/F,"[1]; Mock, sheet TAS2R14, conc. 0,1 mM",-0.02625
same,Δ F/F,"[1]; Mock, sheet TAS2R14, conc. 0,03 mM",-0.01883
same,Δ F/F,"[1]; Mock, sheet TAS2R14, conc. 0,3 mM",-0.03707
same,Δ F/F,"[1]; Mock, sheet TAS2R14, conc. 0,001 mM",-0.0212
same,Δ F/F,"[1]; Mock, sheet TAS2R14, conc. 1 mM",-0.05126
same,Δ F/F,"[1]; Mock, sheet TAS2R14, conc. 0,003 mM",-0.01715
same,Δ F/F,"[1]; Mock, sheet TAS2R46, conc. 0,01 mM",-0.02275
same,Δ F/F,"[1]; Mock, sheet TAS2R46, conc. 0,1 mM",-0.03044
same,Δ F/F,"[1]; Mock, sheet TAS2R46, conc. 0,03 mM",-0.02768
same,Δ F/F,"[1]; Mock, sheet TAS2R46, conc. 0,3 mM",-0.0463
same,Δ F/F,"[1]; Mock, sheet TAS2R46, conc. 0,001 mM",-0.02143
same,Δ F/F,"[1]; Mock, sheet TAS2R46, conc. 1 mM",-0.07983
same,Δ F/F,"[1]; Mock, sheet TAS2R46, conc. 0,003 mM",-0.02717
same,Δ F/F,"[1]; Mock, sheet Tas2r105, conc. 0,01 mM",-0.01859
same,Δ F/F,"[1]; Mock, sheet Tas2r105, conc. 0,1 mM",-0.0309
same,Δ F/F,"[1]; Mock, sheet Tas2r105, conc. 0,03 mM",-0.02007
same,Δ F/F,"[1]; Mock, sheet Tas2r105, conc. 0,3 mM",-0.05122
same,Δ F/F,"[1]; Mock, sheet Tas2r105, conc. 0,001 mM",-0.01558
same,Δ F/F,"[1]; Mock, sheet Tas2r105, conc. 1 mM",-0.09069
same,Δ F/F,"[1]; Mock, sheet Tas2r105, conc. 0,003 mM",-0.01717
same,Δ F/F,"[1]; Mock, sheet Tas2r108, conc. 0,01 mM",-0.01889
same,Δ F/F,"[1]; Mock, sheet Tas2r108, conc. 0,1 mM",-0.02753
same,Δ F/F,"[1]; Mock, sheet Tas2r108, conc. 0,03 mM",-0.02185
same,Δ F/F,"[1]; Mock, sheet Tas2r108, conc. 0,3 mM",-0.04768
same,Δ F/F,"[1]; Mock, sheet Tas2r108, conc. 0,001 mM",-0.0151
same,Δ F/F,"[1]; Mock, sheet Tas2r108, conc. 1 mM",-0.06489
same,Δ F/F,"[1]; Mock, sheet Tas2r108, conc. 0,003 mM",-0.01714
same,Δ F/F,"[1]; Mock, sheet Tas2r117, conc. 0,01 mM",-0.001257
same,Δ F/F,"[1]; Mock, sheet Tas2r117, conc. 0,1 mM",-0.001605
same,Δ F/F,"[1]; Mock, sheet Tas2r117, conc. 0,03 mM",-0.001376
same,Δ F/F,"[1]; Mock, sheet Tas2r117, conc. 0,3 mM",0.0005119
same,Δ F/F,"[1]; Mock, sheet Tas2r117, conc. 0,0003 mM",-0.001061
same,Δ F/F,"[1]; Mock, sheet Tas2r117, conc. 0,001 mM",-0.001339
same,Δ F/F,"[1]; Mock, sheet Tas2r117, conc. 0,003 mM",-0.001948
same,Δ F/F,"[1]; conc. 0,01 mM, Mock (sheet TAS2R1)",-0.001476
same,Δ F/F,"[1]; conc. 0,1 mM, Mock (sheet TAS2R1)",-0.002206
same,Δ F/F,"[1]; conc. 0,03 mM, Mock (sheet TAS2R1)",-0.001334
same,Δ F/F,"[1]; conc. 0,3 mM, Mock (sheet TAS2R1)",0.00174
same,Δ F/F,"[1]; conc. 0,001 mM, Mock (sheet TAS2R1)",-0.0005627
same,Δ F/F,"[1]; conc. 0,003 mM, Mock (sheet TAS2R1)",0.0001343
